Patent US10632135B2, “Orally available compounds, a process for preparing the same and their uses as anti-adhesive drugs for treating E. coli induced inflammatory bowel diseases such as crohn's disease” (CENTRE NATIONAL DE LA RECHERCHE SCIENTIFIQUE, priority 2014, dated 2020)

Legend:
[1] = test system: Adherent-Invasive E. coli strain LF82 adhesion to intestinal epithelial cells T84; experiment: Adhesion of Adherent-Invasive E. coli LF82 to intestinal epithelial cells T84 in presence of monovalent compounds (pre-, co- and post-incubation); assay type: cell-based
Protocol: E. coli strain LF82 was isolated from a chronic ileal lesion of a patient with Crohn's disease (CD). Bacteria were grown routinely in Luria-Bertani (LB) broth overnight at 37° C. Intestinal epithelial cells T84 derived from colonic adenocarcinoma were maintained in an atmosphere containing 5% CO2 at 37° C. in DMEM/F12 (50/50) medium supplemented with 10% (v/v) heat-inactivated fetal calf serum (FCS), 1% L-glutamine, 100 000 U·l^−1 penicillin, 100 mg·l^−1 streptomycin, 25 μg·l^−1 amphotericin B.
T84 were seeded in 48-well plates at a concentration of 1.5×10^5 cells per well and grown for 48 h. AIEC LF82 bacteria were incubated 1 h with monovalent compounds prior the cell infection (pre-incubation protocol) or they were added simultaneously onto the cells (co-incubation protocol) in complete medium without antibiotics, containing heat inactivated fetal calf serum (FCS). Monovalent compound 10 was tested at a dose of 100; 10; 1 (and 0.1) μM, compound 5 was tested at a dose of 500; 100; 10 and 1 μM and D-mannose was tested at a dose of 10 000; 1 000; 100 or 10 μM. Cells were infected with AIEC LF82 bacteria at a multiplicity of infection (MOI) of 10 bacteria per cell for 3 h at 37° C.
For the post-incubation protocol, monovalent compounds (same doses than in the pre- and co-incubation assays) were incubated with cells for 3 h after bacterial infection. A washing step was realized before this post-incubation to eliminate non-adherent bacteria.
Monolayers were washed in phosphate-buffered saline (PBS; pH 7.2) and cells were then lysed with 1% Triton X-100 in deionized water. […] Results were expressed as percentages of residual adhesion, considering adhesion level of AIEC LF82 without mannosides treatment as 100%.
D-mannose, compounds 5 and 10 were assessed as putative inhibitors to compete the interaction of CEACAM6 expressed by T84 intestinal epithelial cells with the adhesin FimH of AIEC bacteria following three different protocols: pre-, co- and post-incubation experiments (FIG. 1).

[2] = test system: HUV-EC-C, CCD-18Co, MRC-5 and PWR-1E normal cell lines; assay type: cell-based, Human
Protocol: Compounds 10 and 22′ were extemporaneously dissolved at 100 mM in water to obtain a stock solution.
The final concentrations of compounds 10 and 22′ were 100 nM, 1 μM, 10 μM, 100 μM and 1 mM within wells.
The 4 cell lines were plated at optimal density per well in 96-well plates. Plates were incubated at 37° C. for 24 hours before treatment, in drug-free culture medium.
Cell lines were then incubated for 96 hours at 37° C. under 5% CO2 with the 5 concentrations of compounds 10 or 22′ in 1:10 dilution steps. Each concentration was done in triplicate. Control cells were treated with vehicle alone (water).
The dose response for index of cytotoxicity (IC) is expressed as following: […]
IC50 represents the drug concentration required to obtain 50% of cellular cytotoxicity. The
IC50 determination values were calculated from semi-log curves.

| SMILES | concentration at which a significant decrease in the bacterial adhesion level was obtained ([1]; co-incubation protocol, LF82 MOI 10, 3 h, T84 cells) | dose at which adhesion was decreased ([1]; post-incubation protocol) | concentration showing a significant inhibitory effect on the bacterial adhesion ([1]; pre-incubation protocol (bacteria incubated 1 h with compound before infection)) | cytotoxicity values of the control compound [2] |
| --- | --- | --- | --- | --- |
| O=C[C@@H](O)[C@@H](O)[C@H](O)[C@H](O)CO [D-mannose] | 1 000 μM | 10 mM | 100 µM |  |
| CC(=O)O[C@@]12CO[C@@H]1C[C@H](O)[C@@]1(C)C(=O)[C@H](O)C3=C(C)[C@@H](OC(=O)[C@H](O)[C@@H](NC(=O)OC(C)(C)C)c4ccccc4)C[C@@](O)([C@@H](OC(=O)c4ccccc4)[C@H]21)C3(C)C [Docetaxel] |  |  |  | consistent with known values of inherent toxicity |
